Results: US12325700B2, “Crystal form S4 of the PLK4 inhibitor (1R,2S)-(e)-2-(3-(4-((cis-2,6-dimethylmorpholino)methyl)styryl)-1 h-imidazol-6-yl)-5′-methoxyspiro[cyclopropane-1,3′-indolin]-2′-one fumarate” (UNIVERSITY HEALTH NETWORK, priority 2019, dated 2025)
Converted amounts (≈) assume the structure as drawn. Counter-ions that a name gives are not always drawn. Like-named read-outs stand apart in the source and are kept apart here.

Tests used:
[1] = Dynamic vapor sorption (DVS) hygroscopicity measurement; format: physicochemical; conditions: 25° C.
Procedure: Hygroscopicity measurements were performed by transferring about 10 mg of sample into a DVS instrument and subsequently recording the weight change with respect to the atmospheric humidity at 25° C. using the following parameters: […]

[2] = Intrinsic dissolution rate at pH 2; format: physicochemical
[3] = Equilibrium solubility in bio-relevant media at ambient temperature; format: physicochemical; conditions: for solubility thermodynamic: thermodynamic from solid
Procedure: Also, equilibrium solubilities were measured in various bio-relevant media at ambient temperature.

[4] = In-vitro dissolution testing of tablets (oral dosage forms); format: physicochemical
From the text: According to the FDA's guidance, in vitro dissolution testing of a drug substance in its oral dosage forms can be properly designed to establish an In Vivo-In Vitro Correlation (IVIVC), i.e., the correlation between an in-vitro property of a dosage form and an in-vivo response. With this guidance, two batches of fumarate containing crystal forms D and S4 were used to prepare tablets, to evaluate any impact on performance of the drug product. Each of the two batches of fumarate and excipients were individually sieved before weighing. The desired weight of each component was then transferred into a shaker mixer and blended. Tableting for the two batches was then performed using a single punch tablet press.
The performance of these tablets was then evaluated using a properly validated dissolution test method.

[5] = human, in vivo
Procedure: Patients were dosed in clinical trials approved by Health Canada and the Research Ethics Board of the Hospital administering the drug. Eight patients were administered the form S4 tablets, six at a dose level of 48 mg and two at a dose level of 160 mg. 64 patients were administered the form D tablets at doses ranging from 3-160 mg.
Blood was collected for analysis prior to dosing and 2, 4, and 6 h after dosing. Briefly, using standard phlebotomy procedures, approximately 6 mL of blood was collected into a K3EDTA blood collection tube and then inverted 8-10 times to mix. The sample was then centrifuged at 1,000 g for 10-15 min at approximately 5° C. The plasma fraction of the blood was removed using a disposable pipette, transferred to a new tube, frozen at −70° C. and subsequently shipped on dry ice for analysis.
Levels of compound (I) were measured in plasma using a method validated in accordance to all applicable USFDA, OECD and MHLW regulations and the USFDA Guidance for Industry: Bioanalytical Method Validation May 2001. […] After evaporation of the extraction solvent, the sample extracts were reconstituted and analyzed by reversed-phase HPLC using a Waters Atlantis dC18. […] The ionized compounds were detected using MS/MS. […] Pharmacokinetic parameters were determined using the Excel add in “PK Functions” […]

Row | weight gain at 80% RH [1] [%] | Intrinsic dissolution rate [2] [μg/cm^2-min] | solubility thermodynamic ([3]; fasted state simulating gastric fluid (FaSSGF), fassgf or other biorelevant, fasted state simulating gastric fluid (FaSSGF), read-out: equilibrium solubility in FaSSGF) [µg/mL] | solubility thermodynamic ([3]; fasted state simulating intestinal fluid (FaSSIF), fassif, fasted state simulating intestinal fluid (FaSSIF), read-out: equilibrium solubility in FaSSIF) [µg/mL] | Dissolution Max ([4]; time 15) [%] | Dissolution Mean ([4]; time 15) [%] | Dissolution Min ([4]; time 15) [%] | Dissolution Max ([4]; time 30) [%] | Dissolution Mean ([4]; time 30) [%] | Dissolution Min ([4]; time 30) [%] | Dissolution Max ([4]; time 60 (60 min)) [%] | Dissolution Mean ([4]; time 60 (60 min)) [%] | Dissolution Min ([4]; time 60 (60 min)) [%] | average dose-normalized exposure (AUC0-6 h divided by dose) [5] [ng·h/mL/mg] | equilibrium solubility in FaSSGF ([3]; fasted state simulating gastric fluid (FaSSGF)) [µg/mL] | equilibrium solubility in FaSSIF ([3]; fasted state simulating intestinal fluid (FaSSIF)) [µg/mL] | Compound
1 | 0.56 | 440.4 | 2080 (≈ 3890 µM) | 80 (≈ 150 µM) | 64 | 63 | 61 | 86 | 83 | 81 | 98 | 94 | 92 |  |  |  | COc1ccc2c(c1)[C@]1(C[C@H]1c1ccc3c(/C=C/c4ccc(CN5C[C@@H](C)O[C@@H](C)C5)cc4)n[nH]c3c1)C(=O)N2 [form D]
2 | 0.41 | 429.3 |  |  | 77 | 76 | 74 | 91 | 90 | 89 | 95 | 94 | 93 | 5.99 ± 2.48 | 2520 | 50 | COc1ccc2c(c1)[C@]1(C[C@H]1c1ccc3c(/C=C/c4ccc(CN5C[C@@H](C)O[C@@H](C)C5)cc4)n[nH]c3c1)C(=O)N2 [form S4, (1R,2S)-(e)-2-(3-(4-((cis-2,6-dimethylmorpholino)methyl)styryl)-1 h-imidazol-6-yl)-5′-methoxyspiro[cyclopropane-1,3′-indolin]-2′-one fumarate]
